{"source": "patent US5698563A", "about": "“Bis-[hydrazones]” (Alteon Inc., priority 1995, dated 1997)", "note": "Counter-ions that a name gives are not always drawn.", "data": [{"tested_on": "aortic wall protein cross-linking", "assay": "not given", "conditions": "diabetic rats; cited from earlier work", "values": [{"compound": "N=C(N)NN", "note": "[aminoguanidine]", "aortic wall protein cross-linking": "diminishes aortic wall protein cross-linking"}]}, {"tested_on": "glomerular basement membrane", "assay": "not given", "conditions": "streptozotocin-diabetic rat; Brownlee et al., 1988; cited from earlier work", "values": [{"compound": "N=C(N)NN", "note": "[aminoguanidine]", "intervention in the development of diabetic nephropathy": "intervenes in the development of diabetic nephropathy"}]}, {"tested_on": "dental pellicle", "assay": "not given", "conditions": "use of chlorhexidine; cited from earlier work", "values": [{"compound": "[H]/N=C(\\N/C(=N/[H])NCCCCCCNC(=N)NC(=N)Nc1ccc(Cl)cc1)Nc1ccc(Cl)cc1", "note": "[chlorhexidine]", "dental pellicle": "increased dental pellicle"}]}, {"tested_on": "immunoglobulin trapping in the kidney", "assay": "not given", "conditions": "Brownlee et al., Diabetes 1986; cited from earlier work", "values": [{"compound": "N=C(N)NN", "note": "[aminoguanidine]", "immunoglobulin trapping in the kidney": "reduction of immunoglobulin trapping in the kidney"}]}, {"tested_on": "cross-linking of glycated bovine serum albumin (AGE-BSA) to the rat tail tendon collagen", "assay": "Inhibition of cross-linking of glycated bovine serum albumin (AGE-BSA) to rat tail tendon collagen coated 96-well plate (ELISA)", "assay_type": "biochemical", "conditions": "4 h, pH 7.4", "method": "The following method was used to evaluate the ability of the compounds of the present invention to inhibit the cross-linking of glycated bovine serum albumin (AGE-BSA) to the rat tail tendon collagen coated 96-well plate.\nThe AGE-BSA was prepared by incubating BSA at a concentration of 200 mg per ml with 200 mM glucose in 0.4M sodium phosphate buffer, pH 7.4 at 37° C. for 12 weeks. The glycated BSA was then extensively dialyzed against phosphate buffer solution (PAS) for 48 hours with additional 5 times buffer exchanges. The rat tail tendon collagen coated plate was blocked first with 300 μl of superbloc blocking buffer (Pierce #37515X) for one hour. The blocking solution was removed from the wells by washing the plate twice with PAS-Tween 20 solution (0.05% Tween 20) using a NUNC-multiprobe or Dynatech ELISA-plate washer. Cross-linking of AGE-BSA (1 to 10 μg per well depending on the batch of AGE-BSA) to rat tail tendon collagen coated plate was performed with and without the testing compound dissolved in PAS buffer at pH 7.4 at the desired concentrations by the addition of 50 μl each of the AGE-BSA diluted in PAS or in the testing compound at 37° C. for 4 hours. The unbrowned BSA in PAS buffer with or without testing compound were added to the separate wells as the blanks. The un-cross-linked AGE-BSA was then removed by washing the wells three times with PAS-Tween buffer. The cross-linked AGE-BSA to the tail tendon coated plate was then quantitated by the polyclonal antibody raised against AGE-RNase. After a one-hour incubation period, AGE antibody was removed by washing 4 times with PAS-Tween.\nThe bound AGE antibody was then detected with the addition of horseradish peroxidase-conjugated secondary antibody, e.g., goat anti-rabbit immunoglobulin and incubation for 30 minutes. The substrate of 2,2-azino-di(3-ethylbenzthiazoline sulfonic acid) (ABTS chromogen) (Zymed #00-2011) was added. The reaction was allowed for an additional 15 minutes and the absorbance was read at 410 nm in a Dynatech plate reader.\nThe % inhibition of each test compound was calculated as follows.\n% inhibition={[Optical density (without compound)-optical density (with\ncompound)]/optical density (without compound)]}100%\nThe IC50 relative inhibition by various test compounds at 10 Mm is as follows: […]", "units": {"IC50": "µM"}, "values": [{"compound": "C1CCC(=NNC2=NCCN2)C(=NNC2=NCCN2)C1", "note": "[1,2-cyclohexanedione bis(2-hydrazino-2-imidazoline hydrazone)dihydrobromidedihydrate]", "IC50": 10}, {"compound": "C1CN=C(NN=C2CCCCC2=NNC2=NCCCN2)NC1", "note": "[1,2-cyclohexanedione bis(2-tetrahydropyrimidine)hydrazone dihydrobromide]", "IC50": 6.7}, {"compound": "C1=CC(=NNC2=NCCN2)C=CC1=NNC1=NCCN1", "note": "[1,4-benzoquinone bis(2-hydrazino-2-imidazoline hydrazone) dihydrobromide]", "IC50": 20}, {"compound": "C1CNC(NN=C2CCC(=NNC3=NCCN3)CC2)=N1", "note": "[1,4-cyclohexane dione bis(2-hydrazino-2-imidazoline hydrazone]dihydrobromide dihydrate]", "IC50": 100}, {"compound": "CC(=NNC1=NCCCN1)C(C)=NNC1=NCCCN1", "note": "[2,3-butanedione bis(2-tetrahydropyrimidine)hydrazone dihydrobromide]", "IC50": 4.1}, {"compound": "CCCC(=NNC1=NCCCN1)C(C)=NNC1=NCCCN1", "note": "[2,3-hexanedione bis(2-tetrahydropyrimidine)hydrazone dihydrobromide]", "IC50": 33}, {"compound": "C(=NNC1=NCCN1)c1cc2ccccc2cc1C=NNC1=NCCN1", "note": "[2,3-naphthalene dialdehyde bis(2-hydrazino-2-imidazoline hydrazone)dihydrobromide dihydrate]", "IC50": 30}, {"compound": "CC(CC(C)=NNC1=NCCN1)=NNC1=NCCN1", "note": "[2,4-pentanedione bis(2-hydrazino-2-imidazoline hydrazone)dihydrobromide]", "IC50": 40}, {"compound": "c1coc(C(=NNC2=NCCN2)C(=NNC2=NCCN2)c2ccco2)c1", "note": "[furyl bis (2-hydrazino-2-imidazoline hydrazone) dihydrobromide]", "IC50": 20}, {"compound": "N=C(N)NN=CC(=NNC(=N)N)c1ccco1", "note": "[furyl glyoxal bis (guanyl hydrazone)dihydrochloride dihydrate]", "IC50": 310}, {"compound": "C(=NNC1=NCCN1)C(=NNC1=NCCN1)c1ccco1", "note": "[furyl glyoxal bis(2-hydrazino-2-imidazoline hydrazone) dihydrobromide dihydrate]", "IC50": "120 ± 100"}, {"compound": "OCCN1CCCN=C1NN=CC(=NNC1=NCCCN1CCO)c1ccco1", "note": "[furyl glyoxal bis[1-(2-hydroxyethyl)-2-hydrazino-1,4,5,6-tetrahydropyrimidine hydrazone]dimethanesulfonate dihydrate]", "IC50": 20}, {"compound": "OCCN1CCN=C1NN=CC(=NNC1=NCCN1CCO)c1ccco1", "note": "[furyl glyoxal bis[1-(2-hydroxyethyl)-2-hydrazino-2-imidazoline hydrazone]dimethanesulfonate monohydrate]", "IC50": "920 ± 260"}, {"compound": "CC(C=NNC1=NCCCN1)=NNC1=NCCCN1", "note": "[methyl glyoxal bis(2-hydrazino-1,4,5,6-tetrahydropyrimidine hydrazone)dihydrobromide]", "IC50": "840 ± 120"}, {"compound": "CC(C=NNC1=NCCN1)=NNC1=NCCN1", "note": "[methyl glyoxal bis(2-hydrazino-2-imidazoline hydrazone) dihydrobromide]", "IC50": "2040 ± 50"}, {"compound": "CC(C=NNC1=NCCCN1CCO)=NNC1=NCCCN1CCO", "note": "[methyl glyoxal bis[1-(2-hydroxyethyl)-2-hydrazino-1,4,5,6-tetrahydropyrimidine hydrazone]dimethanesulfonate]", "IC50": "170 ± 110"}, {"compound": "CC(C=NNC1=NCCN1CCO)=NNC1=NCCN1CCO", "note": "[methyl glyoxal bis[1-(2-hydroxyethyl)-2-hydrazino-2-imidazoline hydrazone]dimethanesulfonate]", "IC50": "320 ± 70"}, {"compound": "CC(C=NNC(=N)NCCCN(C)C)=NNC(=N)NCCCN(C)C", "note": "[methyl glyoxal bis[N-3-dimethylaminopropyl)hydrazinecarboximidamide hydrazone]tetrahydrobromide]", "IC50": "220 ± 50"}, {"compound": "CC(C=NNC(=N)NCC(C)(C)CN(C)C)=NNC(=N)NCC(C)(C)CN(C)C", "note": "[methyl glyoxal bis[N-(2,2-dimethyl-3-dimethylaminopropyl)hydrazinecarboximidamide hydrazone]tetrahydrobromide]", "IC50": "440 ± 60"}, {"compound": "CCc1nnc(NN=CC(C)=NNc2nnc(CC)n2N)n1N", "note": "[methyl glyoxal-bis-(4-amino-3-hydrazino-5-ethyl-1,2,4-triazole)hydrazone dihydrochloride]", "IC50": 120}, {"compound": "CC(C=NNc1nnc(C(C)C)n1N)=NNc1nnc(C(C)C)n1N", "note": "[methyl glyoxal-bis-(4-amino-3-hydrazino-5-isopropyl-1,2,4-triazole)hydrazone dihydrochloride]", "IC50": 110}, {"compound": "CC(C=NNC(=N)NCCN1CCOCC1)=NNC(=N)NCCN1CCOCC1", "note": "[methylglyoxal bis{N-[2-(4-morpholino)ethyl]hydrazinecarboximidamide hydrazone}tetrahydrobromide]", "IC50": "2200 ± 130"}, {"compound": "C(=NNC1=NCCN1)c1ccccc1C=NNC1=NCCN1", "note": "[o-phthalicdicarboxaldehyde bis(2-hydrazino-2-imidazoline hydrazone)dihydrobromide monohydrate]", "IC50": "430 ± 80"}, {"compound": "N=C(N)NN=CC(=NNC(=N)N)c1ccccc1", "note": "[phenyl glyoxal bis(guanylhydrazone)dihydrochloride]", "IC50": "340 ± 190"}, {"compound": "OCCN1CCCN=C1NN=CC(=NNC1=NCCCN1CCO)c1ccccc1", "note": "[phenyl glyoxal bis[1-(2-hydroxyethyl)-2-hydrazino-1,4,5,6-tetrahydropyrimidine hydrazone]dimethanesulfonate dihydrate]", "IC50": "70 ± 100"}, {"compound": "OCCN1CCN=C1NN=CC(=NNC1=NCCN1CCO)c1ccccc1", "note": "[phenyl glyoxal bis[1-(2-hydroxyethyl)-2-hydrazino-2-imidazoline hydrazone]dimethanesulfonate dihydrate]", "IC50": "90 ± 130"}]}, {"tested_on": "gelatin, i.e., collagen", "assay": "Surface browning experiment: gelatin/paper disks in glucose-6-phosphate", "conditions": "Peridex at a final concentration of 0.04% chlorhexidine; 100 Mm glucose-6-phosphate, one week at 50° C., pH 7.4", "method": "To further study the ability of inhibitors of nonenzymatic browning to prevent the discoloration of protein on a surface, such as that which occurs on the tooth surface, the following surface browning experiment is performed. As a substitute for a pellicle-covered tooth surface, unexposed and developed photographic paper is used to provide a fixed protein (gelatin, i.e., collagen) surface on a paper backing. Five millimeter circles are punched and immersed for one week at 50° C. in a solution of 100 Mm glucose-6-phosphate in a 0.5M phosphate buffer, Ph 7.4, containing 3 Mm sodium azide. Glucose-6-phosphate is a sugar capable of participating in nonenzymatic browning at a more rapid rate than glucose. In addition to the glucose-6-phosphate, chlorhexidine and/or a compound of Formula I are included. After incubation, the gelatin/paper disks are rinsed with water, observed for brown color, and photographed.", "values": [{"compound": "[H]/N=C(\\N/C(=N/[H])NCCCCCCNC(=N)NC(=N)Nc1ccc(Cl)cc1)Nc1ccc(Cl)cc1", "note": "[chlorhexidine]", "browning of gelatin disks with chlorhexidine": "significant browning"}]}, {"tested_on": "red blood cells", "assay": "not given", "conditions": "in vivo, diabetic rabbits; 100 mg/kg by oral gavage; cited from earlier work", "values": [{"compound": "N=C(N)NN", "note": "[aminoguanidine]", "diabetes-induced changes in the deformability of red blood cells": "has been shown to prevent it in vivo"}]}, {"tested_on": "RNAase", "assay": "not given", "conditions": "free lysine; Eble et al., 1983; cited from earlier work", "values": [{"compound": "NCCCC[C@H](N)C(=O)O", "note": "[lysine]", "competition with lysine on RNAase for binding of glycosylated protein": "would compete with the lysine on RNAase for the binding of glycosylated protein"}]}, {"tested_on": "Maillard reaction", "assay": "not given", "conditions": "Nordbo, J. Dent. Res., 1979; cited from earlier work", "values": [{"compound": "[H]/N=C(\\N/C(=N/[H])NCCCCCCNC(=N)NC(=N)Nc1ccc(Cl)cc1)Nc1ccc(Cl)cc1", "note": "[chlorhexidine]", "catalysis of browning reactions in vitro": "catalyze browning reactions in vitro"}, {"compound": "benzalkonium chloride", "catalysis of browning reactions in vitro": "catalyze browning reactions in vitro"}]}, {"tested_on": "Maillard reaction", "assay": "not given", "conditions": "attributed to the Maillard reaction; cited from earlier work", "values": [{"compound": "[H]/N=C(\\N/C(=N/[H])NCCCCCCNC(=N)NC(=N)Nc1ccc(Cl)cc1)Nc1ccc(Cl)cc1", "note": "[chlorhexidine]", "color formation in mixtures containing a sugar derivative and a source of amino groups": "increased color formation"}]}]}
